# Columns and labels:
# Assay type in all cases: cell-based
# Escherichia coli [1] = test: Molecular phenotypic antimicrobial susceptibility test (extraction or DNA purification prior to PCR)
# Method in brief: (§1)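 Semi-quantitative PCR measures growth after exposure, so sensitivity means prevented growth and resistance means allowed growth. Exposure lasts 12-16 hours at single or multiple breakpoint concentrations in Mueller Hinton Broth, with the inoculum at 0.5 McFarland.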
# Escherichia coli [2] = test: Traditional culture-based antimicrobial susceptibility test
# Method in brief: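 E. coli isolates underwent conventional growth, isolation and exposure to antimicrobials, giving a culture-based susceptibility call for each agent.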
# [3] = test system: pathogens of clinical samples; test: Molecular phenotypic antimicrobial susceptibility test of clinical samples, extraction DNA purification step prior to PCR (Table 6)
# Method in brief: as §1
# [4] = test system: pathogens of clinical samples; test: Molecular phenotypic antimicrobial susceptibility test of clinical samples, direct PCR without a separate DNA purification step (Table 6)
# Method in brief: as §1
# [5] = E. coli, clinical sample of r10-r24
# [6] = E. coli, clinical sample of r10-r24, Ct Control Avg 18.112
# [7] = E. coli, clinical sample of r158-r172
# [8] = E. coli, clinical sample of r158-r172, Ct Control Avg 20.146
# [9] = K. aerogenes, clinical sample of r136-r150
# [10] = K. aerogenes, clinical sample of r136-r150, Ct Control Avg 19.994
# [11] = K. pneumoniae, clinical sample of r121-r135
# [12] = K. pneumoniae, clinical sample of r121-r135, Ct Control Avg 24.272
# [13] = M. morganii, clinical sample of r55-r69
# [14] = M. morganii, clinical sample of r55-r69, Ct Control Avg 28.86
# [15] = M. morganii, clinical sample of r70-r84
# [16] = M. morganii, clinical sample of r70-r84, Ct Control Avg 27.053
# [17] = P. mirabilis, clinical sample of r25-r39
# [18] = P. mirabilis, clinical sample of r25-r39, Ct Control Avg 26.064
# [19] = P. mirabilis, clinical sample of r40-r54
# [20] = P. mirabilis, clinical sample of r40-r54, Ct Control Avg 26.987
# [21] = S. aureus, clinical sample of r85-r92
# [22] = E. coli, clinical sample of r10-r24, Ct control avg 12.97
# [23] = E. coli, clinical sample of r158-r172, Ct control avg 12.894
# [24] = K. aerogenes, clinical sample of r136-r150, Ct control avg 13.854
# [25] = K. pneumoniae, clinical sample of r121-r135, Ct control avg […]
# [26] = M. morganii, clinical sample of r55-r69, Ct control avg 12.09
# [27] = M. morganii, clinical sample of r70-r84, Ct control avg 11.677
# [28] = P. mirabilis, clinical sample of r25-r39, Ct control avg 11.801
# [29] = P. mirabilis, clinical sample of r40-r54, Ct control avg 10.06
molecule,measurement,setting,value
CO[C@@]1(NC(=O)Cc2cccs2)C(=O)N2C(C(=O)O)=C(COC(N)=O)CS[C@@H]21 [Cefoxitin],Ct at Sensitive Breakpoint,"Escherichia coli [1]; E. coli isolate 4, Ct at control (average) 17.5733",24.09
same,Molecular Antimicrobial Susceptibility Result,"Escherichia coli [1]; E. coli isolate 4, at sensitive breakpoint",Sensitive (Antimicrobial wells with pathogen load detected below the control wells (typically >2 cycle thresholds later) may be reported as Sensitive)
same,Ct at Sensitive Breakpoint,"Escherichia coli [1]; E. coli isolate 5, Ct at control (average) 21.0933",24.72
same,Molecular Antimicrobial Susceptibility Result,"Escherichia coli [1]; E. coli isolate 5, at sensitive breakpoint",Sensitive (Antimicrobial wells with pathogen load detected below the control wells (typically >2 cycle thresholds later) may be reported as Sensitive)
same,Traditional Culture Result,Escherichia coli [2]; E. coli isolate 4 (Table 3),Sensitive
same,Traditional Culture Result,Escherichia coli [2]; E. coli isolate 5 (Table 3),Sensitive
same,Molecular Antibiotic Susceptibility Result,[3]; [5],Sensitive (Antimicrobial wells with pathogen load detected below the control wells (typically >2 cycle thresholds later) may be reported as Sensitive)
same,Ct,[3]; [6],26.364
same,Molecular Antibiotic Susceptibility Result,[3]; [7],Sensitive (Antimicrobial wells with pathogen load detected below the control wells (typically >2 cycle thresholds later) may be reported as Sensitive)
same,Ct,[3]; [8],31.631
same,Molecular Antibiotic Susceptibility Result,[3]; [9],Resistant
same,Ct,[3]; [10],20.635
same,Molecular Antibiotic Susceptibility Result,[3]; [11],Sensitive (Antimicrobial wells with pathogen load detected below the control wells (typically >2 cycle thresholds later) may be reported as Sensitive)
same,Ct,[3]; [12],32.55
same,Molecular Antibiotic Susceptibility Result,[3]; [13],Sensitive (Antimicrobial wells with pathogen load detected below the control wells (typically >2 cycle thresholds later) may be reported as Sensitive)
same,Ct,[3]; [14],37.168
same,Molecular Antibiotic Susceptibility Result,[3]; [15],Sensitive (Antimicrobial wells with pathogen load detected below the control wells (typically >2 cycle thresholds later) may be reported as Sensitive)
same,Ct,[3]; [16],35.243
same,Molecular Antibiotic Susceptibility Result,[3]; [17],Sensitive (Antimicrobial wells with pathogen load detected below the control wells (typically >2 cycle thresholds later) may be reported as Sensitive)
same,Ct,[3]; [18],29.443
same,Molecular Antibiotic Susceptibility Result,[3]; [19],Sensitive (Antimicrobial wells with pathogen load detected below the control wells (typically >2 cycle thresholds later) may be reported as Sensitive)
same,Ct,[3]; [20],30.603
same,Molecular Antibiotic Susceptibility Result,[3]; [21],Resistant
same,Ct,"[3]; S. aureus, clinical sample of r85-r92, Ct Control Avg 24.32",15.037
same,Molecular Antibiotic Susceptibility Result,[4]; [5],Sensitive (Antimicrobial wells with pathogen load detected below the control wells (typically >2 cycle thresholds later) may be reported as Sensitive)
same,Ct,[4]; [22],25.006
same,Molecular Antibiotic Susceptibility Result,[4]; [7],Sensitive (Antimicrobial wells with pathogen load detected below the control wells (typically >2 cycle thresholds later) may be reported as Sensitive)
same,Ct,[4]; [23],29.986
same,Molecular Antibiotic Susceptibility Result,[4]; [9],Resistant
same,Ct,[4]; [24],13.468
same,Molecular Antibiotic Susceptibility Result,[4]; [11],Sensitive (Antimicrobial wells with pathogen load detected below the control wells (typically >2 cycle thresholds later) may be reported as Sensitive)
same,Ct,[4]; [25],27.384
same,Molecular Antibiotic Susceptibility Result,[4]; [13],Sensitive (Antimicrobial wells with pathogen load detected below the control wells (typically >2 cycle thresholds later) may be reported as Sensitive)
same,Ct,[4]; [26],29.041
same,Molecular Antibiotic Susceptibility Result,[4]; [15],Sensitive (Antimicrobial wells with pathogen load detected below the control wells (typically >2 cycle thresholds later) may be reported as Sensitive)
same,Ct,[4]; [27],29.107
same,Molecular Antibiotic Susceptibility Result,[4]; [17],Sensitive (Antimicrobial wells with pathogen load detected below the control wells (typically >2 cycle thresholds later) may be reported as Sensitive)
same,Ct,[4]; [28],27.055
same,Molecular Antibiotic Susceptibility Result,[4]; [19],Sensitive (Antimicrobial wells with pathogen load detected below the control wells (typically >2 cycle thresholds later) may be reported as Sensitive)
same,Ct,[4]; [29],26.904
same,Molecular Antibiotic Susceptibility Result,[4]; [21],Resistant
same,Ct,"[4]; S. aureus, clinical sample of r85-r92, Ct control avg 20.309",20.586
Ampicillin/Sulbactam,Ct at Sensitive Breakpoint,"Escherichia coli [1]; E. coli isolate 1, Ct at control (average) 21.238",19.827
same,Molecular Antimicrobial Susceptibility Result,"Escherichia coli [1]; E. coli isolate 1, at sensitive breakpoint",Resistant
same,Ct at Sensitive Breakpoint,"Escherichia coli [1]; E. coli isolate 2, Ct at control (average) 21.270",21.753
same,Molecular Antimicrobial Susceptibility Result,"Escherichia coli [1]; E. coli isolate 2, at sensitive breakpoint",Resistant
same,Ct at Sensitive Breakpoint,"Escherichia coli [1]; E. coli isolate 3, Ct at control (average) 22.0995",20.363
same,Molecular Antimicrobial Susceptibility Result,"Escherichia coli [1]; E. coli isolate 3, at sensitive breakpoint",Resistant
same,Traditional Culture Result,Escherichia coli [2]; E. coli isolate 1 (Table 3),Resistant
same,Traditional Culture Result,Escherichia coli [2]; E. coli isolate 2 (Table 3),Resistant
same,Traditional Culture Result,Escherichia coli [2]; E. coli isolate 3 (Table 3),Resistant
same,Traditional Culture Result,Escherichia coli [2]; E. coli isolate JJ1887,Resistant
same,Molecular Antibiotic Susceptibility Result,[3]; [5],Resistant
same,Ct,[3]; [6],17.123
same,Molecular Antibiotic Susceptibility Result,[3]; [7],Sensitive (Antimicrobial wells with pathogen load detected below the control wells (typically >2 cycle thresholds later) may be reported as Sensitive)
same,Ct,[3]; [8],29.662
same,Molecular Antibiotic Susceptibility Result,[3]; [9],Sensitive (Antimicrobial wells with pathogen load detected below the control wells (typically >2 cycle thresholds later) may be reported as Sensitive)
same,Ct,[3]; [10],31.018
same,Molecular Antibiotic Susceptibility Result,[3]; [11],Resistant
same,Ct,[3]; [12],23.602
same,Molecular Antibiotic Susceptibility Result,[3]; [13],Sensitive (Antimicrobial wells with pathogen load detected below the control wells (typically >2 cycle thresholds later) may be reported as Sensitive)
same,Ct,[3]; [14],37.093
same,Molecular Antibiotic Susceptibility Result,[3]; [15],Sensitive (Antimicrobial wells with pathogen load detected below the control wells (typically >2 cycle thresholds later) may be reported as Sensitive)
same,Ct,[3]; [16],Undet
same,Molecular Antibiotic Susceptibility Result,[3]; [17],Sensitive (Antimicrobial wells with pathogen load detected below the control wells (typically >2 cycle thresholds later) may be reported as Sensitive)
same,Ct,[3]; [18],33.809
same,Molecular Antibiotic Susceptibility Result,[3]; [19],Sensitive (Antimicrobial wells with pathogen load detected below the control wells (typically >2 cycle thresholds later) may be reported as Sensitive)
same,Ct,[3]; [20],36.062
same,Molecular Antibiotic Susceptibility Result,[4]; [5],Resistant
same,Ct,[4]; [22],13.482
same,Molecular Antibiotic Susceptibility Result,[4]; [7],Sensitive (Antimicrobial wells with pathogen load detected below the control wells (typically >2 cycle thresholds later) may be reported as Sensitive)
same,Ct,[4]; [23],27.583
same,Molecular Antibiotic Susceptibility Result,[4]; [9],Sensitive (Antimicrobial wells with pathogen load detected below the control wells (typically >2 cycle thresholds later) may be reported as Sensitive)
same,Ct,[4]; [24],29.276
same,Molecular Antibiotic Susceptibility Result,[4]; [11],Resistant
same,Ct,[4]; [25],15.608
same,Molecular Antibiotic Susceptibility Result,[4]; [13],Sensitive (Antimicrobial wells with pathogen load detected below the control wells (typically >2 cycle thresholds later) may be reported as Sensitive)
same,Ct,[4]; [26],26.942
same,Molecular Antibiotic Susceptibility Result,[4]; [15],Sensitive (Antimicrobial wells with pathogen load detected below the control wells (typically >2 cycle thresholds later) may be reported as Sensitive)
same,Ct,[4]; [27],32.39
same,Molecular Antibiotic Susceptibility Result,[4]; [17],Sensitive (Antimicrobial wells with pathogen load detected below the control wells (typically >2 cycle thresholds later) may be reported as Sensitive)
same,Ct,[4]; [28],28.121
same,Molecular Antibiotic Susceptibility Result,[4]; [19],Sensitive (Antimicrobial wells with pathogen load detected below the control wells (typically >2 cycle thresholds later) may be reported as Sensitive)
same,Ct,[4]; [29],30.953

# Source: patent US20250290117A1, “MOLECULAR PHENOTYPIC ANTIMICROBIAL SUSCEPTIBILITY TESTING” (priority 2024, published 2025)
